# Assay results from patent US9141756B1, “Multi-scale complex systems transdisciplinary analysis of response to therapy” (University of Southern California, priority 2010, dated 2015).
# Read-outs that look alike come from different tables or passages of the source.
# Key:
# [1] = test system: Eμ-myc lymphomas; details: cited from earlier work
# [2] = test system: A431-sensitive cancer cell line; experiment: SILAC proteomic profiling of response to gefitinib
compound,measurement,setting,value
"O=P1(N(CCCl)CCCl)NCCCO1 (stereo not shown) [CTX, cyclophosphamide]",Phenotype: response to CTX,[1]; Eμ-Myc genotype,variable response to CTX
same,Phenotype: response to CTX,[1]; Eμ-Myc/Arf −/− genotype (lymphoma lacking ARF),slightly resistant to CTX
same,Phenotype: response to CTX,[1]; Eμ-Myc/Bcl2 genotype,medium resistant to CTX
same,Phenotype: response to CTX,[1]; Eμ-Myc/p53 −/− genotype (lymphoma lacking p53),highly resistant to CTX
"COc1cc2ncnc(Nc3ccc(F)c(Cl)c3)c2cc1OCCCN1CCOCC1 [geftinib, gefitinib]",proteins showing a statistically significant change in abundance following treatment,"[2]; A431 cells, SILAC",400
same,potential cell-surface biomarkers showing changes in abundance in response to therapy,[2]; both in vitro and in vivo (xenograft),Ten
same,additional proteins showing changes in the secretome and serum,[2]; secretome and serum,seven
